We go through 13 compounds from ChEMBL document CHEMBL1201862, “PubChem BioAssay data set” (2004).

Among the test systems are A498; A549; HCT-15; HOP-62; HT-29; IGROV-1; MOLT-4; Malme-3M; NCI-H226; NCI-H460; OVCAR-8; SF-539; SN12C; SNB-19; TK-10; U-251; UACC-62.
What all share (experiment): NCI-60 cell line screen, 48 h

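96-well plates; 48 h exposure; 5 concentrations. Endpoints by linear interpolation between flanking doses. Not reached: highest tested concentration assigned. Abbreviation: GI50, concentration required for 50% inhibition of growth.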 The source made the active and inactive calls. Rule as the data show it: active = GI50 up to about 1.1 µM and inactive = higher.

Turning to `CCc1c(OC(C)=O)c2c(NC3OC(COC(C)=O)C(OC(C)=O)C(OC(C)=O)C3OC(C)=O)nc(SC)nc2oc1=O` (configuration not stated), the GI50 in the assay on A498 is > 100 µM (inactive); with A549, > 100 µM (inactive); with HCT-15, above 100 µM; with HOP-62, > 100 µM (inactive); with HT-29 it was > 100 µM (inactive); in the assay with IGROV-1, > 100 µM (inactive). Besides, the GI50 with MOLT-4, with Malme-3M, in the assay on NCI-H226, in the assay on NCI-H460, in the assay with OVCAR-8 and with SF-539 was > 100 µM (inactive) throughout. Besides, the GI50 in the assay with SN12C, with SNB-19, with TK-10, with U-251 and in the assay with UACC-62 was > 100 µM (inactive) each time.

In the case of `CC(C)(C)C1=CC(CCC(=O)Nc2ccccc2[N+](=O)[O-])=NC(S)N1` (configuration not stated), the GI50 was > 100 µM (inactive) with A549; above 100 µM with HCT-15; > 100 µM (inactive) in the assay with HOP-62; > 100 µM (inactive) with HT-29; > 100 µM (inactive) in the assay with IGROV-1; > 100 µM (inactive) with MOLT-4. For the same compound, the GI50 with Malme-3M, in the assay on NCI-H226, with NCI-H460, in the assay on OVCAR-8, in the assay with SF-539 and with SN12C was > 100 µM (inactive) throughout. Also, the GI50 with SNB-19, in the assay with TK-10, with U-251 and in the assay on UACC-62 was > 100 µM (inactive) in each case.

As to `CNC(=O)C1CCc2nnc(-c3ccccc3)n21` (configuration not stated), the GI50 was > 100 µM (inactive) with A498; > 100 µM (inactive) in the assay on A549; above 100 µM in the assay on HCT-15; > 100 µM (inactive) in the assay with HOP-62; > 100 µM (inactive) in the assay on IGROV-1; > 100 µM (inactive) in the assay on MOLT-4. Moreover, the GI50 with Malme-3M, in the assay with NCI-H226, in the assay with NCI-H460, in the assay with SF-539, in the assay on SN12C and in the assay on SNB-19 was > 100 µM (inactive) throughout. The GI50 in the assay with TK-10, in the assay on U-251 and in the assay with UACC-62 was > 100 µM (inactive) in each case.

With `O=[N+]([O-])c1ccc(Cl)c(C2SCc3nc4ccccc4n32)c1` (configuration not stated), the GI50 in the assay on A498 is 32.3 µM (inactive); with A549, 44.9 µM (inactive); with HT-29, 36 µM (inactive); in the assay on IGROV-1, 46.2 µM (inactive); with MOLT-4 it was 24.2 µM (inactive); in the assay with Malme-3M, 44.1 µM (inactive). The GI50 in the assay with NCI-H226 was 24.1 µM (inactive); with NCI-H460, 28.7 µM (inactive); in the assay with OVCAR-8, 43.3 µM (inactive); in the assay with SF-539, 31.9 µM (inactive); with SN12C it was 43.6 µM (inactive); in the assay with SNB-19, 41.5 µM (inactive). Besides, the GI50 in the assay with TK-10 was 64.6 µM (inactive); in the assay with U-251, 41.8 µM (inactive); with UACC-62, 39.9 µM (inactive).

Regarding `CN(C)CCn1cnc2ncccc2c1=O`, the GI50 in the assay with A549, with HOP-62, in the assay with HT-29, in the assay with IGROV-1, in the assay with MOLT-4 and in the assay with Malme-3M was > 100 µM (inactive) in each case. Also, the GI50 with NCI-H226, in the assay with NCI-H460, with OVCAR-8, in the assay with SF-539, in the assay on SN12C and in the assay with SNB-19 was > 100 µM (inactive) in each case. The GI50 in the assay on TK-10, in the assay with U-251 and with UACC-62 was > 100 µM (inactive) each time.

For the compound `O=C(NC1CCCC1=O)c1ccccc1` (configuration not stated), the GI50 with A498 was 13.7 µM (inactive); with A549, > 100 µM (inactive); with HOP-62, > 100 µM (inactive); with HT-29, > 100 µM (inactive); in the assay with IGROV-1 it was > 100 µM (inactive); in the assay with MOLT-4, > 100 µM (inactive). Further, the GI50 is > 100 µM (inactive) in the assay with Malme-3M; 98.9 µM (inactive) with NCI-H226; > 100 µM (inactive) in the assay with NCI-H460; > 100 µM (inactive) in the assay with OVCAR-8; > 100 µM (inactive) in the assay on SF-539; > 100 µM (inactive) in the assay on SN12C. The GI50 in the assay with SNB-19, in the assay on TK-10, with U-251 and with UACC-62 was > 100 µM (inactive) throughout.

On to `CC(=O)Nc1ccc(/C=C/C(=O)c2sc(-c3nc(C)c(C(=O)/C=C/c4ccc(NC(C)=O)cc4)s3)nc2C)cc1`, for which the GI50 is > 100 µM (inactive) with A549; above 100 µM with HCT-15; > 100 µM (inactive) in the assay with HOP-62; > 100 µM (inactive) with HT-29; > 100 µM (inactive) in the assay with IGROV-1; > 100 µM (inactive) in the assay on MOLT-4. In addition, the GI50 with Malme-3M, in the assay with NCI-H226, with NCI-H460, in the assay with OVCAR-8, in the assay with SF-539 and in the assay with SN12C was > 100 µM (inactive) in each case. Further, the GI50 in the assay on SNB-19, with TK-10, in the assay on U-251 and in the assay on UACC-62 was > 100 µM (inactive) throughout.

On to `Cn1c(=O)n(C2(C)CSC2)c2ccccc21`, for which the GI50 in the assay with A498 is > 100 µM (inactive); in the assay on A549, > 100 µM (inactive); in the assay on HCT-15 it was above 100 µM; with HOP-62 it was > 100 µM (inactive); in the assay with HT-29, > 100 µM (inactive); with IGROV-1 it was > 100 µM (inactive). In addition, the GI50 in the assay on MOLT-4, in the assay on NCI-H226, with NCI-H460, in the assay with OVCAR-8, with SF-539 and with SN12C was > 100 µM (inactive) in each case. For the same compound, the GI50 in the assay on SNB-19, in the assay with TK-10, in the assay on U-251 and in the assay with UACC-62 was > 100 µM (inactive) in each case.

Consider `O=C(CC1(O)C(=O)Nc2ccccc21)c1ccc(F)cc1` (configuration not stated), for which the GI50 with A498 was > 100 µM (inactive); in the assay with A549 it was > 100 µM (inactive); in the assay with HCT-15 it was above 100 µM; in the assay on HT-29 it was > 100 µM (inactive); in the assay on IGROV-1 it was > 100 µM (inactive); in the assay on MOLT-4, > 100 µM (inactive). For the same compound, the GI50 in the assay with Malme-3M, in the assay on NCI-H226, in the assay on NCI-H460, with OVCAR-8, in the assay with SF-539 and in the assay with SN12C was > 100 µM (inactive) in each case. Moreover, the GI50 in the assay on SNB-19, in the assay with TK-10 and in the assay with UACC-62 was > 100 µM (inactive) each time.

Consider `CC(c1ccc2c(c1)CCC1C2CC2OC23CC=CC(=O)[C@]13C)C1C[C@]2(C)O[C@]2(C)[C@H](O)O1` (some centres not stated), for which the GI50 is 16.1 µM (inactive) in the assay with A549; 82.4 µM with HCT-15; 0.791 µM (active) in the assay on HOP-62; 47.1 µM (inactive) in the assay on HT-29; 90.6 µM (inactive) in the assay on IGROV-1; 13.4 µM (inactive) in the assay with MOLT-4. The GI50 with Malme-3M was 71.4 µM (inactive); in the assay on NCI-H226, 12.1 µM (inactive); in the assay on NCI-H460, 25.2 µM (inactive); in the assay on OVCAR-8 it was 37 µM (inactive); in the assay on SF-539, 82.4 µM (inactive); with SN12C, > 100 µM (inactive). Besides, the GI50 in the assay with SNB-19 is 15.9 µM (inactive); in the assay with TK-10, > 100 µM (inactive); in the assay with U-251, 3.61 µM (inactive); in the assay on UACC-62, 91.2 µM (inactive).

As for `Nc1ncn(C2C=C(CO)C(O)C2O)c(=O)n1` (configuration not stated), the GI50 in the assay with A498 is > 100 µM (inactive); in the assay on A549, 52.4 µM (inactive); in the assay on HCT-15 it was 54.2 µM; with HOP-62, 35.1 µM (inactive); with IGROV-1, 84.5 µM (inactive); in the assay with MOLT-4 it was 59.4 µM (inactive). Further, the GI50 was > 100 µM (inactive) with Malme-3M; > 100 µM (inactive) in the assay on NCI-H226; 35 µM (inactive) with NCI-H460; 45.5 µM (inactive) in the assay on OVCAR-8; 63.5 µM (inactive) in the assay with SF-539; 32.4 µM (inactive) in the assay with SN12C. The GI50 with SNB-19, in the assay with TK-10, in the assay with U-251 and with UACC-62 was > 100 µM (inactive) each time.

As for `COc1ccc(/C=C2\CCc3ccccc3C2=O)cc1OC`, the GI50 is 46.6 µM (inactive) in the assay on A498; 38.2 µM (inactive) in the assay on A549; 17.2 µM in the assay with HCT-15; 76.7 µM (inactive) in the assay on HOP-62; 27.8 µM (inactive) in the assay with HT-29; 27.4 µM (inactive) with IGROV-1. The GI50 in the assay on MOLT-4 was 21.4 µM (inactive); with Malme-3M, 38.3 µM (inactive); in the assay with NCI-H460 it was 34.8 µM (inactive); in the assay with OVCAR-8 it was 32.1 µM (inactive); in the assay with SF-539, 22.3 µM (inactive); in the assay on SN12C it was 25.2 µM (inactive). For the same compound, the GI50 was 46 µM (inactive) in the assay with SNB-19, 32.6 µM (inactive) in the assay with TK-10, 31 µM (inactive) in the assay on U-251 and 16 µM (inactive) in the assay on UACC-62.

Turning to `Nc1nc(=O)n([C@@H]2CC[C@H](CO)O2)cc1F`, the GI50 with A549 was > 100 µM (inactive); in the assay on HCT-15, above 100 µM; with HOP-62, > 100 µM (inactive); in the assay with HT-29, > 100 µM (inactive); with MOLT-4, > 100 µM (inactive); in the assay on Malme-3M, > 100 µM (inactive). Further, the GI50 in the assay on NCI-H226, with NCI-H460, in the assay on OVCAR-8, with SN12C, in the assay with SNB-19 and in the assay with TK-10 was > 100 µM (inactive) in each case. Besides, the GI50 in the assay on U-251 was > 100 µM (inactive).
